Assays:
[1] = system: Methicillin Resistant Staphylococcus aureus strain USA 200; test: Minimum inhibitory concentration (MIC), CLSI broth micro-dilution, S. aureus; format: cell-based; conditions: Staphylococcus aureus, MRSA / USA200; Table 6; MRSA USA 200; cation adjusted Mueller Hinton Broth + 0.002% Tween-80; 35° C., 22 hours
Summary of the method: (§1)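 Colonies grown 20 h at 35° C on Trypticase Soy agar (MRSA) or Luria agar (E. coli) were suspended in cation-adjusted Mueller Hinton broth with 0.002% Tween-80. Suspensions were added at OD600 0.0005 to 10-point twofold compound dilutions, then incubated 22 h at 35° C.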

[2] = system: Escherichia coli ATCC 25922; test: Minimum inhibitory concentration (MIC), CLSI broth micro-dilution, E. coli; format: cell-based; conditions: Escherichia coli, ATCC25922, 22 h, Table 6, cation adjusted Mueller Hinton Broth + 0.002% Tween-80, 35° C.
Summary of the method: as §1

Cc1nc(-c2ccc3c(c2)CCCC3)nc(C)c1C(=O)N[C@@H](CCN)C(=O)N(C)[C@@H]1C(=O)N[C@@H](C)C(=O)N[C@H](C(=O)NCC#N)Cc2ccc(OCCN)c(c2)-c2cc1ccc2OCCN (racemic) [Compound 259, rac-(8S,11S,14S)-3,18-bis(2-aminoethoxy)-N-(cyanomethyl)-11-methyl-14-[methyl-[rac-(2S)-4-amino-2-[(4,6-dimethyl-2-tetralin-6-yl-pyrimidine-5-carbonyl)amino]butanoyl]amino]-10,13-dioxo-9,12-diazatricyclo[13.3.1.12,6]icosa-1(18),2(20),3,5,15(19),16-hexaene-8-carboxamide]
MIC [1]: 0.025 µM | MIC [2]: 0.26 µM

CCc1ccc(-c2nc(C)c(C(=O)N[C@@H](CCN)C(=O)N(C)[C@@H]3C(=O)N[C@@H](C)C(=O)N[C@H](C(=O)NCC#N)Cc4ccc(OCCN)c(c4)-c4cc3ccc4OCCN)c(C)n2)cc1 (racemic) [Compound 260, rac-(8S,11S,14S)-3,18-bis(2-aminoethoxy)-N-(cyanomethyl)-11-methyl-14-[methyl-[rac-(2S)-4-amino-2-[[2-(4-ethylphenyl)-4,6-dimethyl-pyrimidine-5-carbonyl]amino]butanoyl]amino]-10,13-dioxo-9,12-diazatricyclo[13.3.1.12,6]icosa-1(18),2(20),3,5,15(19),16-hexaene-8-carboxamide]
MIC [1]: 0.079 µM | MIC [2]: 0.45 µM

CCC(C)(C)c1ccc(-c2nc(C)c(C(=O)N[C@@H](CCN)C(=O)N(C)[C@@H]3C(=O)N[C@@H](C)C(=O)N[C@H](C(=O)NCC#N)Cc4ccc(OCCN)c(c4)-c4cc3ccc4OCCN)c(C)n2)cc1 (racemic) [Compound 261, rac-(8S,11S,14S)-3,18-bis(2-aminoethoxy)-N-(cyanomethyl)-11-methyl-14-[methyl-[rac-(2S)-4-amino-2-[[2-[4-(1,1-dimethylpropyl)phenyl]-4,6-dimethyl-pyrimidine-5-carbonyl]amino]butanoyl]amino]-10,13-dioxo-9,12-diazatricyclo[13.3.1.12,6]icosa-1(18),2(20),3,5,15(19),16-hexaene-8-carboxamide]
MIC [1]: 0.014 µM | MIC [2]: 0.1 µM

Cc1nc(-c2ccc(CCC(C)C)cc2)nc(C)c1C(=O)N[C@@H](CCN)C(=O)N(C)[C@@H]1C(=O)N[C@@H](C)C(=O)N[C@H](C(=O)NCC#N)Cc2ccc(OCCN)c(c2)-c2cc1ccc2OCCN (racemic) [Compound 262, rac-(8S,11S,14S)-3,18-bis(2-aminoethoxy)-N-(cyanomethyl)-11-methyl-14-[methyl-[rac-(2S)-4-amino-2-[[2-(4-isopentylphenyl)-4,6-dimethyl-pyrimidine-5-carbonyl]amino]butanoyl]amino]-10,13-dioxo-9,12-diazatricyclo[13.3.1.12,6]icosa-1(18),2(20),3,5,15(19),16-hexaene-8-carboxamide]
MIC [1]: 0.0081 µM | MIC [2]: 0.097 µM

Cc1nc(-c2cccc(C(C)(C)C)c2)nc(C)c1C(=O)N[C@@H](CCN)C(=O)N(C)[C@@H]1C(=O)N[C@@H](C)C(=O)N[C@H](C(=O)NCC#N)Cc2ccc(OCCN)c(c2)-c2cc1ccc2OCCN (racemic) [Compound 263, rac-(8S,11S,14S)-3,18-bis(2-aminoethoxy)-N-(cyanomethyl)-11-methyl-14-[methyl-[rac-(2S)-4-amino-2-[[2-(3-tert-butylphenyl)-4,6-dimethyl-pyrimidine-5-carbonyl]amino]butanoyl]amino]-10,13-dioxo-9,12-diazatricyclo[13.3.1.12,6]icosa-1(18),2(20),3,5,15(19),16-hexaene-8-carboxamide]
MIC [1]: 0.016 µM | MIC [2]: 0.53 µM

C=Cc1ccc(-c2nc(C)c(C(=O)N[C@@H](CCN)C(=O)N(C)[C@@H]3C(=O)N[C@@H](C)C(=O)N[C@H](C(=O)NCC#N)Cc4ccc(OCCN)c(c4)-c4cc3ccc4OCCN)c(C)n2)cc1 (racemic) [Compound 265, rac-(8S,11S,14S)-3,18-bis(2-aminoethoxy)-N-(cyanomethyl)-11-methyl-14-[methyl-[rac-(2S)-4-amino-2-[[4,6-dimethyl-2-(4-vinylphenyl)pyrimidine-5-carbonyl]amino]butanoyl]amino]-10,13-dioxo-9,12-diazatricyclo[13.3.1.12,6]icosa-1(18),2(20),3,5,15(19),16-hexaene-8-carboxamide]
MIC [1]: 0.068 µM | MIC [2]: 0.41 µM

COC(C)(C)c1ccc(-c2nc(C)c(C(=O)N[C@@H](CCN)C(=O)N(C)[C@@H]3C(=O)N[C@@H](C)C(=O)N[C@H](C(=O)NCC#N)Cc4ccc(OCCN)c(c4)-c4cc3ccc4OCCN)c(C)n2)cc1 (racemic) [Compound 267, rac-(8S,11S,14S)-3,18-bis(2-aminoethoxy)-N-(cyanomethyl)-11-methyl-14-[methyl-[rac-(2S)-4-amino-2-[[2-[4-(1-methoxy-1-methyl-ethyl)phenyl]-4,6-dimethyl-pyrimidine-5-carbonyl]amino]butanoyl]amino]-10,13-dioxo-9,12-diazatricyclo[13.3.1.12,6]icosa-1(18),2(20),3,5,15(19),16-hexaene-8-carboxamide]
MIC [1]: 0.39 µM | MIC [2]: 1 µM

CCCCc1ccc(-c2nc(C)c(C(=O)N[C@@H](CCN)C(=O)N(C)[C@@H]3C(=O)N[C@@H](C)C(=O)N[C@H](C(=O)NCC#N)Cc4ccc(OCCN)c(c4)-c4cc3ccc4OCCN)c(C)n2)cc1CCCC (racemic) [Compound 268, rac-(8S,11S,14S)-3,18-bis(2-aminoethoxy)-N-(cyanomethyl)-11-methyl-14-[methyl-[rac-(2S)-4-amino-2-[[2-(3,4-dibutylphenyl)-4,6-dimethyl-pyrimidine-5-carbonyl]amino]butanoyl]amino]-10,13-dioxo-9,12-diazatricyclo[13.3.1.12,6]icosa-1(18),2(20),3,5,15(19),16-hexaene-8-carboxamide]
MIC [1]: 0.016 µM | MIC [2]: 0.12 µM

Cc1nc(-c2ccc3c(c2)CCC3(C)C)nc(C)c1C(=O)N[C@@H](CCN)C(=O)N(C)[C@@H]1C(=O)N[C@@H](C)C(=O)N[C@H](C(=O)NCC#N)Cc2ccc(OCCN)c(c2)-c2cc1ccc2OCCN (racemic) [Compound 269, rac-(8S,11S,14S)-3,18-bis(2-aminoethoxy)-N-(cyanomethyl)-11-methyl-14-[methyl-[rac-(2S)-4-amino-2-[[2-(1,1-dimethylindan-5-yl)-4,6-dimethyl-pyrimidine-5-carbonyl]amino]butanoyl]amino]-10,13-dioxo-9,12-diazatricyclo[13.3.1.12,6]icosa-1(18),2(20),3,5,15(19),16-hexaene-8-carboxamide]
MIC [1]: 0.016 µM | MIC [2]: 0.094 µM

Cc1nc(-c2ccc3c(c2)CCCC3(C)C)nc(C)c1C(=O)N[C@@H](CCN)C(=O)N(C)[C@@H]1C(=O)N[C@@H](C)C(=O)N[C@H](C(=O)NCC#N)Cc2ccc(OCCN)c(c2)-c2cc1ccc2OCCN (racemic) [Compound 270, rac-(8S,11S,14S)-3,18-bis(2-aminoethoxy)-N-(cyanomethyl)-11-methyl-14-[methyl-[rac-(2S)-4-amino-2-[[2-(1,1-dimethyltetralin-6-yl)-4,6-dimethyl-pyrimidine-5-carbonyl]amino]butanoyl]amino]-10,13-dioxo-9,12-diazatricyclo[13.3.1.12,6]icosa-1(18),2(20),3,5,15(19),16-hexaene-8-carboxamide]
MIC [1]: 0.012 µM | MIC [2]: 0.064 µM

Cc1nc(-c2ccc3c(c2)OCCC3(C)C)nc(C)c1C(=O)N[C@@H](CCN)C(=O)N(C)[C@@H]1C(=O)N[C@@H](C)C(=O)N[C@H](C(=O)NCC#N)Cc2ccc(OCCN)c(c2)-c2cc1ccc2OCCN (racemic) [Compound 271, rac-(8S,11S,14S)-3,18-bis(2-aminoethoxy)-N-(cyanomethyl)-11-methyl-14-[methyl-[rac-(2S)-4-amino-2-[[2-(4,4-dimethylchroman-7-yl)-4,6-dimethyl-pyrimidine-5-carbonyl]amino]butanoyl]amino]-10,13-dioxo-9,12-diazatricyclo[13.3.1.12,6]icosa-1(18),2(20),3,5,15(19),16-hexaene-8-carboxamide]
MIC [1]: 0.032 µM | MIC [2]: 0.26 µM

CC(C)=C(C)c1ccc(-c2nc(C)c(C(=O)N[C@@H](CCN)C(=O)N(C)[C@@H]3C(=O)N[C@@H](C)C(=O)N[C@H](C(=O)NCC#N)Cc4ccc(OCCN)c(c4)-c4cc3ccc4OCCN)c(C)n2)cc1 (racemic) [Compound 272, rac-(8S,11S,14S)-3,18-bis(2-aminoethoxy)-N-(cyanomethyl)-11-methyl-14-[methyl-[rac-(2S)-4-amino-2-[[2-[4-(1,2-dimethylprop-1-enyl)phenyl]-4,6-dimethyl-pyrimidine-5-carbonyl]amino]butanoyl]amino]-10,13-dioxo-9,12-diazatricyclo[13.3.1.12,6]icosa-1(18),2(20),3,5,15(19),16-hexaene-8-carboxamide]
MIC [1]: 0.012 µM | MIC [2]: 0.065 µM

CC(C)=Cc1ccc(-c2nc(C)c(C(=O)N[C@@H](CCN)C(=O)N(C)[C@@H]3C(=O)N[C@@H](C)C(=O)N[C@H](C(=O)NCC#N)Cc4ccc(OCCN)c(c4)-c4cc3ccc4OCCN)c(C)n2)cc1 (racemic) [Compound 273, rac-(8S,11S,14S)-3,18-bis(2-aminoethoxy)-N-(cyanomethyl)-11-methyl-14-[methyl-[rac-(2S)-4-amino-2-[[4,6-dimethyl-2-[4-(2-methylprop-1-enyl)phenyl]pyrimidine-5-carbonyl]amino]butanoyl]amino]-10,13-dioxo-9,12-diazatricyclo[13.3.1.12,6]icosa-1(18),2(20),3,5,15(19),16-hexaene-8-carboxamide]
MIC [1]: 0.0082 µM | MIC [2]: 0.099 µM

Source: patent US20260274892A1, “MACROCYCLIC BROAD SPECTRUM ANTIBIOTICS” (RQx Pharmaceuticals, Inc., priority 2017, published 2026)
